Measured values published in ChEMBL document CHEMBL1201862, “PubChem BioAssay data set” (2004).
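Five compound concentrations were applied to cells in 96-well plates for 48 hours; endpoints were derived by simple linear interpolation of the resulting dose-response curve. GI50 = concentration required for 50% inhibition of growth.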 Calls of active or inactive are those of the source. Rule as the data show it: active = GI50 up to about 1.1 µM and inactive = higher.

Key:
Experiment in all cases: inhibition of tumour cell growth, NCI panel, 48 h
[1] = test system: COLO 205
[2] = test system: NCI-H226
[3] = test system: OVCAR-3
[4] = test system: OVCAR-4
[5] = test system: M14
[6] = test system: KM12
[7] = test system: SN12C
[8] = test system: DMS-114
[9] = test system: SF-268
[10] = test system: SK-MEL-5
[11] = test system: HT-29
[12] = test system: RXF 393
[13] = test system: SNB-75
[14] = test system: SW-620
[15] = test system: LXFL 529
[16] = test system: XF498
[17] = test system: A498
[18] = test system: KM-20L2
[19] = test system: HL-60
[20] = test system: NCI-H23
[21] = test system: A549
[22] = test system: SF-295
[23] = test system: U-251
[24] = test system: Malme-3M
[25] = test system: SF-539
[26] = test system: ACHN
[27] = test system: CAKI-1
[28] = test system: RXF 631
[29] = test system: HOP-92
[30] = test system: LOX IMVI
[31] = test system: SNB-78
[32] = test system: TK-10
[33] = test system: SR
[34] = test system: OVCAR-8
[35] = test system: K562
[36] = test system: NCI-H460
[37] = test system: M19-MEL
[38] = test system: OVCAR-5
[39] = test system: MOLT-4
[40] = test system: SK-MEL-28
[41] = test system: HCT-116
[42] = test system: IGROV-1
[43] = test system: CCRF-CEM
[44] = test system: RPMI-8226
[45] = test system: DLD-1
[46] = test system: 786-0
[47] = test system: HOP-18
[48] = test system: UACC-257
[49] = test system: SK-MEL-2
[50] = test system: SNB-19
[51] = test system: DMS-273
[52] = test system: HOP-62
[53] = test system: UO-31
[54] = test system: HCT-15
[55] = test system: EKVX
[56] = test system: HCC 2998
[57] = test system: SK-OV-3
[58] = test system: UACC-62

**Q.** `CCC(=O)OC[n+]1ccc2c(C)c3[nH]c4ccc(OC)cc4c3c(C)c2c1` was tested. Which GI50 [1] did it give?
**A.** 0.0906 µM (active)

**Q.** And the GI50 [2]?
**A.** 0.348 µM (active)

**Q.** What about the GI50 [3] of the same molecule?
**A.** 1.34 µM (inactive)

**Q.** And the GI50 [4]?
**A.** 0.0865 µM (active)

**Q.** And the GI50 [5]?
**A.** 0.333 µM (active)

**Q.** And the GI50 [6]?
**A.** 0.0875 µM (active)

**Q.** And the GI50 [7]?
**A.** < 0.01 µM (active)

**Q.** What about the GI50 [8] of the same molecule?
**A.** 0.104 µM (active)

**Q.** What about the GI50 [9] of the same molecule?
**A.** 0.24 µM (active)

**Q.** And the GI50 [10]?
**A.** 0.728 µM (active)

**Q.** And the GI50 [11]?
**A.** 0.0568 µM (active)

**Q.** What about the GI50 [12] of the same molecule?
**A.** 0.166 µM (active)

**Q.** And the GI50 [13]?
**A.** 0.434 µM (active)

**Q.** What about the GI50 [14] of the same molecule?
**A.** 0.0288 µM (active)

**Q.** And the GI50 [15]?
**A.** 0.0582 µM (active)

**Q.** What about the GI50 [16] of the same molecule?
**A.** 1.22 µM (inactive)

**Q.** What about the GI50 [17] of the same molecule?
**A.** 1.06 µM (active)

**Q.** And the GI50 [18]?
**A.** 0.117 µM (active)

**Q.** What about the GI50 [19] of the same molecule?
**A.** 1.66 µM (inactive)

**Q.** And the GI50 [20]?
**A.** 0.22 µM (active)

**Q.** And the GI50 [21]?
**A.** 0.135 µM (active)

**Q.** And the GI50 [22]?
**A.** 0.0738 µM (active)

**Q.** And the GI50 [23]?
**A.** 0.0547 µM (active)

**Q.** And the GI50 [24]?
**A.** 0.627 µM (active)

**Q.** And the GI50 [25]?
**A.** 0.243 µM (active)

**Q.** And the GI50 [26]?
**A.** 0.0485 µM (active)

**Q.** What about the GI50 [27] of the same molecule?
**A.** 0.188 µM (active)

**Q.** What about the GI50 [28] of the same molecule?
**A.** 0.0843 µM (active)

**Q.** And the GI50 [29]?
**A.** 0.0556 µM (active)

**Q.** And the GI50 [30]?
**A.** 0.0927 µM (active)

**Q.** What about the GI50 [31] of the same molecule?
**A.** 0.693 µM (active)

**Q.** And the GI50 [32]?
**A.** 0.94 µM (active)

**Q.** What about the GI50 [33] of the same molecule?
**A.** 0.0134 µM (active)

**Q.** What about the GI50 [34] of the same molecule?
**A.** 0.0755 µM (active)

**Q.** What about the GI50 [35] of the same molecule?
**A.** 0.132 µM (active)

**Q.** And the GI50 [36]?
**A.** 0.0199 µM (active)

**Q.** What about the GI50 [37] of the same molecule?
**A.** 0.266 µM (active)

**Q.** What about the GI50 [38] of the same molecule?
**A.** 0.299 µM (active)

**Q.** What about the GI50 [39] of the same molecule?
**A.** 0.0142 µM (active)

**Q.** And the GI50 [40]?
**A.** 0.759 µM (active)

**Q.** And the GI50 [41]?
**A.** 0.0182 µM (active)

**Q.** And the GI50 [42]?
**A.** 0.048 µM (active)

**Q.** And the GI50 [43]?
**A.** 0.0685 µM (active)

**Q.** And the GI50 [44]?
**A.** 0.182 µM (active)

**Q.** And the GI50 [45]?
**A.** 0.0435 µM (active)

**Q.** What about the GI50 [46] of the same molecule?
**A.** 0.176 µM (active)

**Q.** And the GI50 [47]?
**A.** < 0.01 µM (active)

**Q.** And the GI50 [48]?
**A.** 0.7 µM (active)

**Q.** What about the GI50 [49] of the same molecule?
**A.** 0.291 µM (active)

**Q.** What about the GI50 [50] of the same molecule?
**A.** 1.57 µM (inactive)

**Q.** `O=c1nc2sc3ccc4ccccc4c3n2nc1-c1ccccc1` was tested. Which GI50 [1] did it give?
**A.** 56.2 µM (inactive)

**Q.** What about the GI50 [2] of the same molecule?
**A.** 59.2 µM (inactive)

**Q.** And the GI50 [3]?
**A.** 19 µM (inactive)

**Q.** What about the GI50 [4] of the same molecule?
**A.** 14.7 µM (inactive)

**Q.** What about the GI50 [5] of the same molecule?
**A.** 44.4 µM (inactive)

**Q.** What about the GI50 [6] of the same molecule?
**A.** 63.5 µM (inactive)

**Q.** What about the GI50 [7] of the same molecule?
**A.** 27.2 µM (inactive)

**Q.** And the GI50 [8]?
**A.** > 100 µM (inactive)

**Q.** What about the GI50 [9] of the same molecule?
**A.** 37.3 µM (inactive)

**Q.** And the GI50 [10]?
**A.** 59.2 µM (inactive)

**Q.** And the GI50 [11]?
**A.** 94.8 µM (inactive)

**Q.** And the GI50 [51]?
**A.** 39.2 µM (inactive)

**Q.** What about the GI50 [12] of the same molecule?
**A.** 21 µM (inactive)

**Q.** And the GI50 [13]?
**A.** 21.1 µM (inactive)

**Q.** And the GI50 [14]?
**A.** 32.5 µM (inactive)

**Q.** What about the GI50 [15] of the same molecule?
**A.** 44.7 µM (inactive)

**Q.** And the GI50 [16]?
**A.** 29.6 µM (inactive)

**Q.** And the GI50 [52]?
**A.** 26.7 µM (inactive)

**Q.** And the GI50 [18]?
**A.** 62.8 µM (inactive)

**Q.** And the GI50 [19]?
**A.** > 100 µM (inactive)

**Q.** What about the GI50 [20] of the same molecule?
**A.** 27.2 µM (inactive)

**Q.** And the GI50 [21]?
**A.** 28.6 µM (inactive)

**Q.** What about the GI50 [53] of the same molecule?
**A.** 22.3 µM (inactive)

**Q.** And the GI50 [22]?
**A.** 16.8 µM (inactive)

**Q.** What about the GI50 [23] of the same molecule?
**A.** 19 µM (inactive)

**Q.** What about the GI50 [24] of the same molecule?
**A.** 21.4 µM (inactive)

**Q.** What about the GI50 [25] of the same molecule?
**A.** 14.8 µM (inactive)

**Q.** And the GI50 [26]?
**A.** 27.8 µM (inactive)

**Q.** What about the GI50 [27] of the same molecule?
**A.** 31.1 µM (inactive)

**Q.** What about the GI50 [28] of the same molecule?
**A.** 36.6 µM (inactive)

**Q.** And the GI50 [54]?
**A.** 45.1 µM

**Q.** And the GI50 [55]?
**A.** 41.8 µM (inactive)

**Q.** What about the GI50 [29] of the same molecule?
**A.** 21.4 µM (inactive)

**Q.** What about the GI50 [30] of the same molecule?
**A.** 15.1 µM (inactive)

**Q.** What about the GI50 [31] of the same molecule?
**A.** 35.8 µM (inactive)

**Q.** What about the GI50 [32] of the same molecule?
**A.** 23.1 µM (inactive)

**Q.** And the GI50 [33]?
**A.** 71.6 µM (inactive)

**Q.** What about the GI50 [34] of the same molecule?
**A.** 18.9 µM (inactive)

**Q.** And the GI50 [56]?
**A.** > 100 µM (inactive)

**Q.** And the GI50 [35]?
**A.** > 100 µM (inactive)

**Q.** And the GI50 [57]?
**A.** 36.1 µM (inactive)

**Q.** What about the GI50 [36] of the same molecule?
**A.** 22.1 µM (inactive)

**Q.** What about the GI50 [37] of the same molecule?
**A.** 78.3 µM (inactive)

**Q.** What about the GI50 [38] of the same molecule?
**A.** > 100 µM (inactive)

**Q.** And the GI50 [39]?
**A.** > 100 µM (inactive)

**Q.** What about the GI50 [40] of the same molecule?
**A.** 35.6 µM (inactive)

**Q.** And the GI50 [41]?
**A.** 21.7 µM (inactive)

**Q.** What about the GI50 [42] of the same molecule?
**A.** 25.4 µM (inactive)

**Q.** What about the GI50 [43] of the same molecule?
**A.** > 100 µM (inactive)

**Q.** And the GI50 [45]?
**A.** 35.6 µM (inactive)

**Q.** And the GI50 [46]?
**A.** 18.7 µM (inactive)

**Q.** And the GI50 [47]?
**A.** 30.5 µM (inactive)

**Q.** What about the GI50 [58] of the same molecule?
**A.** 64.4 µM (inactive)

**Q.** And the GI50 [48]?
**A.** 99.3 µM (inactive)

**Q.** What about the GI50 [49] of the same molecule?
**A.** > 100 µM (inactive)

**Q.** And the GI50 [50]?
**A.** 29.4 µM (inactive)
